Measured values published in patent publication US20100034749A1, “Use of a Cationic Collodal Preparation for the Diagnosis and Treatment of Ocular Diseases” (MediGene AG, priority 2006, published 2010).

Tested on: laser induced CNV model in mice
Assay: SLO imaging after i.v. application in laser induced CNV mouse model
Format: in vivo, C57/BI6 mice
Method: For animal experiments, the laser induced CNV model in mice was used as described by Tobe et al. (1998). In brief, C57/BI6 mice (8-12 weeks old) were anesthetized, pupils were dilated and 4-6 burns of 100 μm diameter were produced with a laser (100 mW, 100 μs). In 80-90% of the laser burns, CNV develops within about 14 days.
As read-out, Scanning Laser Opthalmoscopy (SLO), flat mount and histology are performed. 100 μl of the respective formulation was applied intravenously, immediately followed by SLO over a time course of about 120 min. Three different EndoTAG formulations are selected:
EndoTAG-A: DOTAP/DOPC/OG-DHPE=60/35/5 mol %, 10 mM total liposomal components in 10% trehalose (produced as described in Example 1). EndoTAG-B: DOTAP/DOPC/OG-DOPE=[…] mol %, 10 mM total liposomal components in 10% trehalose EndoTAG-C: DOTAP/DOPC/OG-DOPE/PEG-DOPE=60/30/5/5 mol %, 10 mM total liposomal components in 10% trehalose
As control, neutral liposomes (DOPC/OG-DOPE=95/5 mol %, 10 mM total lipid, in trehalose) is applied as well as an aqueous solution of Oregon Green (0.5 mM). Additional animals are used to carry out flat mounts and histology by sacrificing animals at the respective peak intensity as observed in SLO.

**Q.** What does the source list for Oregon Green [free dye]?
**A.** Accumulation at lesion site / neovascular sites (SLO after i.v. application): did not show an accumulation; Staining of the vasculature / neovasculature (after 60 min, equivalent concentrations): no increased staining of the vasculature
